Experimental findings from US9801372B2, “Polymers for increasing the soil mobility of low-solubility insecticides” (BASF SE, priority 2009, dated 2017) are described below.

The procedure of the series: First, a calibration with the active ingredient to be determined is performed at a suitable wavelength in different concentrations. To study the solubilization with a polymeric solubilizer, a 1% by weight polymer solution is prepared and the UV absorption is measured at said wavelength. The polymer solution is saturated with the active ingredient to be analyzed and equilibrated for 24 h. After centrifugation of the solution and UV analysis of the supernatant at said wavelength, after subtracting the polymer absorption over the calibration curve, the dissolved active ingredient concentration can be concluded.
The fipronil concentration was determined by means of UV spectroscopy at 278 nm; to this end, the absorption of the polymer (1% by weight in water) was first determined alone. Subsequently, an excess of fipronil was added and the mixture was stirred at room temperature overnight. The centrifuged solution was analyzed once again at 278 nm in the UV instrument. After subtracting the appropriate solubilizer spectrum and comparing by means of a fipronil calibration curve produced beforehand, it was possible to determine the concentration of dissolved fipronil.

For the compound `N#Cc1nn(-c2c(Cl)cc(C(F)(F)F)cc2Cl)c(N)c1[S+]([O-])C(F)(F)F` (centres unmarked) [Fipronil], the “Fipronil solubility in ppm” value is 2.2 ppm.

As to Triton X-100, the “Fipronil solubility in ppm” value is recorded as 13 ppm.
